Test results as given in ChEMBL document CHEMBL5728840, “Vasopressin receptor antagonists and products and methods related thereto” (2021).
pIC50: −log10 of the molar value.

Target: Vasopressin V1a receptor (Homo sapiens, UniProt P37288)
Assay: Vasopressin V1A Receptor Antagonist Assay: The purpose of this assay was to determine the inhibitory effect of synthesized compounds on the Vasopressin V1a receptor. The assay as performed in Chinese Hamster Ovary (CHO) cells expressing the human Arginine Vasopressin Receptor 1a (AVPR1a). Arginine Vasopressin (AVP) evokes an increase in intracellular calcium in CHO-AVPR1a cells which is measured in a fluorescence assay on the […] using calcium sensitive dyes. Test compounds were assessed for their ability to affect the magnitude of the response to AVP, with antagonists showing a concentration-dependent reduction in the AVP-mediated fluorescence. Compounds were tested in duplicate in a 10-point, 1:3 dilution series starting at a nominal concentration of 3 μM in the assay.CHO-AVPR1a cells were maintained in routine culture in T175 Flasks at 37° C., 5% CO2. The growth medium consists of Ham's F12 media supplemented with 10% v/v fetal bovine serum, 1× non-essential amino acids, and 0.4 mg/ml Geneticin G418.
Assay type: cell-based

Sequence of Vasopressin V1a receptor (P37288 whole entry): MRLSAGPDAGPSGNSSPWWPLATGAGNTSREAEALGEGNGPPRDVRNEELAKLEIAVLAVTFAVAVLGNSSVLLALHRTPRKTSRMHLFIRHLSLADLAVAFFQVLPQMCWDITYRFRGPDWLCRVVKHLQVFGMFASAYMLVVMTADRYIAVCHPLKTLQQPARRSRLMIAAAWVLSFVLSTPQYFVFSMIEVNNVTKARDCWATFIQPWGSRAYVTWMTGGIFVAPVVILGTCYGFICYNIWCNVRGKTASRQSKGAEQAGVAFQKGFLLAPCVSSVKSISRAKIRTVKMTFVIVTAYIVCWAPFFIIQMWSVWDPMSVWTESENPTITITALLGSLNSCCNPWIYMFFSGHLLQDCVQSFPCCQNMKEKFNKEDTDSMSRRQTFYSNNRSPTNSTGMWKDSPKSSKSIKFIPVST

CN(C)C(=O)N1Cc2cc(Cl)ccc2-n2c(nnc2C2CC3(C2)CN(c2ccc(F)cn2)C3)C1
pIC50: > 7.00

O=C(C1CC1)N1CC2(CC(c3nnc4n3-c3ccc(Cl)cc3CN(C3CC3)C4)C2)C1
pIC50: > 7.00
